Assay results: patent publication US8580856B2, “Acetaminophen/ibuprofen combinations and method for their use” (McNeil-PPC, Inc., priority 2006, dated 2013)

Tested on: CO2-laser-induced painful stimulus on UV(B) irradiated skin
Assay: Laser somatosensory evoked potentials (LSEP) analgesia study, peak-to-peak amplitude
Assay type: in vivo, human
Details: for Estimate (difference between Treatment A and Treatment B), peak-to-peak LSEP amplitude: single oral dose, 24 subjects, cross-over; for Analgesic effectiveness versus placebo (peak-to-peak LSEP amplitudes), in words: FIG. 1 and Table C
Procedure: General Timing of Study: Each subject was treated on six different treatment days in a randomized, placebo-controlled, double-blind six sequence cross-over study, with each treatment being a different dosage combination of acetaminophen (“APAP”) and ibuprofen (“IBU”) administered in a random order. The total duration of the study per subject was about 46 days. The washout period between the six treatment days was about 7 days. About 2 to 14 days before receiving the first treatment, each subject participated in a one-day, pre-study examination visit.
On each treatment day, each subject stayed for approximately 7 hours at the treatment center, and followed the schedule set forth below in Table A:
Method of Pain Induction: A pulsed CO2 laser, which is commercially available from Synrad, Inc., under the tradename, “Synrad Infrared Gas Laser,” model E48−/−26W was used to induce painful stimuli in the desired skin location.
Evaluation of Pain Relief: Laser induced somatosensory evoked potentials (LSEPs), which served as an objective-quantitative measurement of pain, were generating using Vertex-EEG readings collected using a MUX800/UBV800 Multiplexer and universal bio-amplifier with integrated 15 Hz-impedance measurement, both of which are commercially available from Rimkus Medizintechnik. Twelve artifact free EEG-sections of 3 second duration were averaged in two steps: (1.) 3×4 original sweeps; and (2.) 3×1 averaged sweeps, digitally filtered (Gaussian phase-free software filter on the basis of a Fast Fourier Transform (FFT), with ranges from 1.0 Hz to 12.5 Hz (first step) and 1.5 to 10.0 Hz (second step)). Means were analyzed for a time window of 600 ms after laser stimulation to identify and measure the components of the evoked potentials (latencies and amplitudes). The N1 and P2 components, which are the pain related components of the EEG-signal, were derived as described above and analyzed in accordance with the procedure set forth in Schaffler K., et al., “Analgesic effects of low-dose intravenous orphenadrine in the state of capsaicin hyperalgesia. A randomised, placebo-controlled, double-blind cross-over study using laser somatosensory evoked potentials obtained from capsaicin-irritated skin in healthy volunteers,” 54(10) Arzneimittel-Forschung. 673-9 (2004). The N1-P2-peak-to peak amplitudes as well as the amplitudes of the individual N1 and P2 components were determined from the Vertex-EEG reading, and the correlated pain response was thereby determined in accordance with the procedure generally set forth in Seibel, K., et al., “Comparison of Two Different Preparations of Ibuprofen with Regard to the Time Course of their Analgesic Effect,” 54(8) Arnzeimittel-Forschung 444-51 (2004). The LSEP recording at hour −2:05 served as baseline (=t0). Drug induced analgesia was reflected by an amplitude reduction versus control or comparator treatment.
According to this procedure, a change in LSEP amplitude of about 1.0 to 3.0 μV was previously determined to be generally sufficient to allow for statistically significant discrimination between, for example, a given active agent vs. placebo, vs. other active agents, and/or vs. different dosages of the same active agent. An amplitude difference in the LSEP that exceeds about 2.0-2.5 μV (in peak-to-peak (PtP) amplitude) and > about 1.00-1.25 μV (for the single N1- and P2-components) was defined as clinically relevant.
The procedure set forth in Example 1 was independently performed on 24 subjects in a randomized, placebo-controlled, double-blind 6 sequence cross-over study. The six ibuprofen/acetaminophen treatments administered on the treatment days consisted of two white caplets and 4 red tablets comprised of the doses set forth in Table B: […]

[1] = Treatment B = Placebo, over the treatment period

CC(=O)Nc1ccc(O)cc1 [APAP 1000 mg, acetaminophen]
Estimate (difference between Treatment A and Treatment B), peak-to-peak LSEP amplitude (Treatment B = APAP250 + IBU300): 1.6417
Estimate (difference between Treatment A and Treatment B), peak-to-peak LSEP amplitude (Treatment B = APAP500 + IBU200): 1.5389
Estimate (difference between Treatment A and Treatment B), peak-to-peak LSEP amplitude (Treatment B = APAP750 + IBU100): 2.7487
Estimate (difference between Treatment A and Treatment B), peak-to-peak LSEP amplitude (Treatment B = IBU400): 0.01133
Estimate (difference between Treatment A and Treatment B), peak-to-peak LSEP amplitude [1]: −4.4020
Analgesic effectiveness versus placebo (peak-to-peak LSEP amplitudes), in words: significantly more effective analgesics than the placebo

CC(C)Cc1ccc(C(C)C(=O)O)cc1 (centres unmarked) [IBU 400 mg, ibuprofen]
Estimate (difference between Treatment A and Treatment B), peak-to-peak LSEP amplitude [1]: −4.4134
Analgesic effectiveness versus placebo (peak-to-peak LSEP amplitudes), in words: significantly more effective analgesics than the placebo
